Results from article PMC12990037, “Discovery of Two Structurally Distinct Classes of Inhibitors Targeting the Nuclease MUS81 and Enhancing Efficacy of Chemotherapy in Cancer Cells” (Journal of Medicinal Chemistry, 2026).

Key:
CAL51 WT cells = experiment: γH2AX foci after cisplatin treatment; type: cell-based; conditions: compared to the DMSO controls
Description: 7 MUS81 inhibitors synergize with cisplatin to reduce cancer cell viability. (A,B) U2OS cells were treated with DMSO, MU262, or MU876 at the indicated concentrations in combination with a range of cisplatin (0–5 μM) for 96–120 h. Cell viability was assessed by the Cy-Quant assay. The survival was normalized to the DMSO-treated control. Graphs were generated in Graphpad Prism using the nonlinear regression fitting model. n ≥ 3, error bars represent s.d. (C) CAL51 WT cells were treated with DMSO, MU262, or MU876 at the indicated concentrations at each passage over 2 weeks. Cisplatin (12 μM) was added for the last 24 h before harvest. DNA damage was assessed by quantifying γH2AX foci using fluorescence microscopy and CellProfiller software. Data were visualized plotted in R software. Red markers represent the median of γH2AX foci number per nucleus; blue markers represent the percentage of cells with ≥20 γH2AX foci per nucleus. n = 3, error bars represent s.d.; ****p <0.0001 (unpaired, two-tailed t-test). […]
U2OS, CAL51 WT, and CAL51 MUS81^–/– cells (10,000) were seeded in a 96-well plate 24 h before the treatment. […] The γH2AX foci were detected and quantified using CellProfiler (Broad Institute of MIT and Harvard). The analyzed data were plotted in RStudio software using R programming language.

U2OS BIR-GFP cells = experiment: I-SceI-based BIR repair reporter assay; type: cell-based; conditions: Homo sapiens, 72 h, normalized to DMSO
Description: 3 MUS81 inhibitors suppress HR and BIR. (A) I-SceI-based BIR repair efficiency was measured in U2OS BIR-GFP cells treated with DMSO, two different siRNAs targeting MUS81, or the indicated concentrations of MU262 and MU876, and their control analogues for 72 h. The percentage of repair was normalized to the DMSO-treated control (D). n = 3. Error bars represent standard deviation (s.d.); ****p <0.0001 (unpaired, two-tailed t-test). […] (C,D) I-SceI-based HR (C) and NHEJ (D) repair efficiency was measured using U2OS DR-GFP and EJ5-GFP cells, respectively, following treatment with DMSO, MU262,MU876, or their control analogues for 72 h. The percentage of repair was normalized to the DMSO-treated control. n = 3. Error bars represent s.d.; *p <0.05, **p <0.01, ****p <0.0001 (unpaired, two-tailed t-test).
Reporter DR-GFP and […] U2OS cells along with BIR-GFP cells were transfected with 2.5 μg of I-SceI-expressing pCAGGS vector and subsequently treated with MUS81 inhibitors at the indicated concentrations. After transfection (72 h), cells were trypsinized and resuspended in 3% BSA in PBS. GFP fluorescence detection was carried out using a BD FACSVerse flow cytometer, and the data were analyzed with FlowJo software (BD Life Sciences). Data presented in the graph were normalized to the DMSO-treated sample.

SMILES	γH2AX foci following cisplatin treatment (CAL51 WT cells)	IC50 (U2OS BIR-GFP cells) [nM]
Cc1cc(=O)[nH]c(-n2nc(-c3ccccc3)cc2NC(=O)c2cc(-c3ccccc3)on2)n1 [Compound 32, N-(1-(4-Methyl-6-oxo-1,6-dihydropyrimidin-2-yl)-3-phenyl-1H-pyrazol-5-yl)-5-phenylisoxazole-3-carboxamide]	significantly reduced the number of γH2AX foci in a concentration-dependent manner	240
CCc1nn2c(O)c(-c3nc4ccccc4[nH]3)nnc2c1-c1ccc(F)cc1 [Compound 18, 3-(1H-Benzo[d]imidazole-2-yl)-7-ethyl-8-(4-fluorophenyl)pyrazolo[5,1-c][1,2,4]triazin-4-ol]	significantly reduced the number of γH2AX foci in a concentration-dependent manner	1530
